In BindingDB's records for PubMed 7562497 (R. W. Johnson Pharmaceutical Research Institute, 1995) one finds Ki data, which are given here for 14 compounds.

Several values for one entry are separate records, joined by “and”; a condition that tells them apart may be missing. Identical values can stand only once.

Assay [1] addresses Norepinephrine transporter (Rattus norvegicus, UniProt Q9JIA2).
The target in assay [2] is Sodium-dependent serotonin transporter (Rattus norvegicus, UniProt P31652).
Assay [3] deals with Kappa-type opioid receptor (Rattus norvegicus, UniProt P34975).
The target of a further assay is Mu-type opioid receptor (Rattus norvegicus, UniProt P33535).
Mu-type opioid receptor, sequence (P33535 whole entry): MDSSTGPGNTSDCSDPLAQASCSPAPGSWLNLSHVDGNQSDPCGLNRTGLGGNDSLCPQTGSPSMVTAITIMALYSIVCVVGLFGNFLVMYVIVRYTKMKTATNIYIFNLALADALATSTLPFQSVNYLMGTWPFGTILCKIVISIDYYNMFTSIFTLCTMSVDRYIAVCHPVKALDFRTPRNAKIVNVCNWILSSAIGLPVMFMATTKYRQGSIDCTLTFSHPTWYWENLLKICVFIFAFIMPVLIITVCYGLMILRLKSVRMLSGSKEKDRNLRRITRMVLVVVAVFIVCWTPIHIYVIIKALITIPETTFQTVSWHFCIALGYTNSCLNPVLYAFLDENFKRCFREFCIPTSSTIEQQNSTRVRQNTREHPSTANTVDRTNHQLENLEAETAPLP

Sodium-dependent serotonin transporter, sequence (P31652 whole entry): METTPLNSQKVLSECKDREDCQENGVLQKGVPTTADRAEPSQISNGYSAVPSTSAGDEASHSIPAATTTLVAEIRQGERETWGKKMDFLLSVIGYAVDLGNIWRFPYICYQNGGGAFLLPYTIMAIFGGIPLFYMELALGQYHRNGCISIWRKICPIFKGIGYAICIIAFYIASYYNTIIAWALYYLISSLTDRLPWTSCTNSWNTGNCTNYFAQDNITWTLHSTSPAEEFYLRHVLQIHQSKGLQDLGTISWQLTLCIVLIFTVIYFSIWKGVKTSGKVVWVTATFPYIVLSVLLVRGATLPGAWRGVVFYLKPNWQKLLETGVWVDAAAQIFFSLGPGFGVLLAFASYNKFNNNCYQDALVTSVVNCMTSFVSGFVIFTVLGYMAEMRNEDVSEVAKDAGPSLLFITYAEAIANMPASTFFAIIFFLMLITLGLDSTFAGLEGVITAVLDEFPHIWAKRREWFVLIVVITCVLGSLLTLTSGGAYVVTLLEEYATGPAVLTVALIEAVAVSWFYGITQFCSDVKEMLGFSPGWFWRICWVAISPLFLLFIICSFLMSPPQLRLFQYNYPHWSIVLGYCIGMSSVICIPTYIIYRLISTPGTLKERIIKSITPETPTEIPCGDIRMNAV
Kappa-type opioid receptor, sequence (P34975 whole entry): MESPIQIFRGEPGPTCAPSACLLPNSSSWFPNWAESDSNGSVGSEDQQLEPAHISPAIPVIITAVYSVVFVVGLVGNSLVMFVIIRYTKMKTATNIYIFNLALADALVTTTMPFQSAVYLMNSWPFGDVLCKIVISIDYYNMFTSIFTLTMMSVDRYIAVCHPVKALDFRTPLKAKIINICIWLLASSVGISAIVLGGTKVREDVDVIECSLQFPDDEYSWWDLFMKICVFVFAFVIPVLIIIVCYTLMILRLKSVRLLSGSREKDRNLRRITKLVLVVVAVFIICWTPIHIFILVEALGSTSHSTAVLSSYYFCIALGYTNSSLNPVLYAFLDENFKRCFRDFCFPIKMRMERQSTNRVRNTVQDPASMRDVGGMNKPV

Regarding `CCC(OC(C)=O)C(CC(C)N(C)C)(c1ccccc1)c1ccccc1` (stereo not drawn), the Ki in assay [1] is above 10000 nM.
On to `CN1CCC23CCCCC2C1Cc1ccc(O)cc13` (stereo not drawn) [17-methyl-17-azatetracyclo[7.5.3.0^{1,10}.0^{2,7}]heptadeca-2(7),3,5-trien-4-ol], for which the Ki in assay [2] was 401 nM and 86.3 nM; in assay [1], 340 nM and 1210 nM.
Turning to `O=C1CC[C@@]2(O)[C@H]3Cc4ccc(O)c5c4[C@@]2(CCN3CC2CC2)[C@H]1O5` [(1S,5R,13R,17S)-4-(cyclopropylmethyl)-10,17-dihydroxy-12-oxa-4-azapentacyclo[9.6.1.0^{1,13}.0^{5,17}.0^{7,18}]octadeca-7(18),8,10-trien-14-one], the inhibition constant Ki in assay [2] and in assay [1] was above 10000 nM throughout.
In the case of `CC1(C)SSC(C)(C)[C@@H](NC(=O)[C@@H](N)Cc2ccc(O)cc2)C(=O)NCC(=O)N[C@@H](Cc2ccccc2)C(=O)N[C@H]1C(=O)O` [(4S,7S,13S)-13-[(2S)-2-amino-3-(4-hydroxyphenyl)propanamido]-7-benzyl-3,3,14,14-tetramethyl-6,9,12-trioxo-1,2-dithia-5,8,11-triazacyclotetradecane-4-carboxylic acid], the Ki in assay [2], in assay [3] and in assay [1] was above 10000 nM throughout.
In the case of `CO[C@@]12CC[C@@]3(C[C@@H]1[C@@](C)(O)C(C)(C)C)[C@H]1Cc4ccc(O)c5c4[C@@]3(CCN1CC1CC1)[C@H]2O5` [BUPRENORPHINE], the inhibition constant (Ki) in assay [2] and in assay [1] was above 10000 nM in each case.
Consider `COc1ccc2c3c1OC1C(O[Si](C)(C)C)C=CC4C(C2)N(C)CCC341` (stereo not drawn) [CAS_553916], for which the Ki was 11.1 nM at Mu-type opioid receptor, above 10000 nM in assay [2], 501 nM in assay [3] and above 10000 nM in assay [1].
On to `C=CCN1CC[C@]23CCCCC2[C@H]1Cc1ccc(O)cc13` (stereo partly drawn) [Levallorphan], for which, in assay [2], the inhibition constant Ki was > 10000 nM and 7950 nM.
Consider `COc1ccc2c(c1)C13CCCCC1C(C2)N(C)CC3` (stereo not drawn) [Levomethorpan], for which the Ki in assay [1] is 240 nM and 179 nM.
Turning to `c1cc2c(c(NC3=NCCN3)c1)CCCC2` [NSC_19472], the Ki was 2120 nM and 1330 nM and > 10000 nM on Mu-type opioid receptor; 992 nM and 528 nM and 2350 nM in assay [2]; above 10000 nM in assay [3]; 785 nM and 2510 nM and 432 nM in assay [1].
In the case of `COc1ccc2c3c1OC1C(O)C=CC4C(C2)N(C)CCC341` (stereo not drawn) [NSC_223652], the Ki in assay [2] and in assay [1] was above 10000 nM throughout.
On to `COc1ccc2c3c1O[C@H]1C(=O)CCC4(O)[C@@H](C2)N(C)CC[C@]314` (stereo partly drawn) [Oxycodone], for which the Ki in assay [2] and in assay [1] was above 10000 nM in each case.
For the compound `CCC(=O)O[C@](Cc1ccccc1)(c1ccccc1)[C@H](C)CN(C)C` [PROPOXYPHENE], the Ki was 34.5 nM on Mu-type opioid receptor, above 10000 nM in assay [2], 1220 nM in assay [3] and above 10000 nM in assay [1].
As to `C=CCN1CC[C@]23c4c5ccc(O)c4O[C@H]2C(=O)CC[C@@]3(O)[C@H]1C5` [[17-(2,3-3H-2-propenyl)]-4,5a-epoxy-3,14-dihydroxymorphinan-6-one], the Ki in assay [2] and in assay [1] was above 10000 nM each time.
Consider `C[C@@H](NC(=O)[C@@H](N)Cc1ccc(O)cc1)C(=O)NCC(=O)N(C)[C@@H](Cc1ccccc1)C(=O)NCCO` [[tyrosyl-3,5-3H(N)]-D-Ala2-Mephe4-glyol5-enkephalin], for which the values for the Ki in assay [2], in assay [3] and in assay [1] were above 10000 nM, 210 nM and above 10000 nM, respectively.

Broadly, the Ki is a measure of affinity in units of concentration, obtained from inhibition or displacement.
